Assay results as given in ChEMBL document CHEMBL5120922, “Discovery, Optimization, and Evaluation of Potent and Selective PI3Kδ-γ Dual Inhibitors for the Treatment of B-cell Malignancies” (J Med Chem, 2022).
Calls of active or inactive are those of the source. No cut-off for these calls is given here.

What was measured:
[1] = system: DOHH-2; test: Antiproliferative activity against human DOHH-2 cells assessed as cell growth inhibition measured after 72 hrs by MTT assay; assay type: functional, cell-based; conditions: DOHH-2, 72 h
[2] = system: SU-DHL-6; test: Antiproliferative activity against human SU-DHL-6 cells assessed as cell growth inhibition measured after 72 hrs by MTT assay; assay type: functional, cell-based; conditions: SU-DHL-6, 72 h
[3] = system: SUD4; test: Antiproliferative activity against human SU-DHL-4 cells assessed as cell growth inhibition measured after 72 hrs by MTT assay; assay type: functional, cell-based; conditions: SU-DHL-4, 72 h
[4] = Cmax in Sprague-Dawley rat at 5 mg/kg, po measured upto 24 hrs by LC-MS/MS analysis; assay type: ADME, organism-based; design: dose 5 mg/kg, time < 24 hrs, route po; conditions: in vivo
[5] = AUC(0 to t) in Sprague-Dawley rat at 10 mg/kg, po measured upto 24 hrs by LC-MS/MS analysis; assay type: ADME, organism-based; design: dose 10 mg/kg, time < 24 hrs, route po; conditions: in vivo
[6] = Half life in Sprague-Dawley rat at 5 mg/kg, po measured upto 24 hrs by LC-MS/MS analysis; assay type: ADME, organism-based; conditions: in vivo
[7] = Half life in Sprague-Dawley rat at 5 mg/kg, iv measured upto 24 hrs by LC-MS/MS analysis; assay type: ADME, organism-based; conditions: in vivo
[8] = Clearance in Sprague-Dawley rat at 5 mg/kg, po measured upto 24 hrs by LC-MS/MS analysis; assay type: ADME, organism-based; conditions: in vivo
[9] = Clearance in Sprague-Dawley rat at 5 mg/kg, iv measured upto 24 hrs by LC-MS/MS analysis; assay type: ADME, organism-based; conditions: in vivo
[10] = Volume of distribution at steady state in Sprague-Dawley rat at 5 mg/kg, iv measured upto 24 hrs by LC-MS/MS analysis; assay type: ADME, organism-based; conditions: in vivo, read-out: Vdss
[11] = system: SU-DHL-6; test: Induction of cell cycle arrest in human SU-DHL-6 cells assessed as accumulation of cells at G0/G1 phase at 0.5 uM incubated for 24 hrs in presence of ibrutinib by PI staining based FACScan flow cytometry analysis (reference value: 55.61 %); assay type: functional
[12] = system: SU-DHL-6; test: Induction of cell cycle arrest in human SU-DHL-6 cells assessed as accumulation of cells at G2/M phase at 0.5 uM incubated for 24 hrs by PI staining based FACScan flow cytometry analysis (reference value: 20.21 %); assay type: functional
[13] = system: DOHH-2; test: Induction of cell cycle arrest in human DOHH-2 cells assessed as accumulation of cells at G0/G1 phase at 0.5 uM incubated for 24 hrs in presence of ibrutinib by PI staining based flow cytometry analysis (reference value: 23.47 %); assay type: functional
[14] = system: DOHH-2; test: Induction of cell cycle arrest in human DOHH-2 cells assessed as accumulation of cells at S phase at 0.5 uM incubated for 24 hrs by PI staining based FACScan flow cytometry analysis (reference value: 55.11 %); assay type: functional
[15] = system: DOHH-2; test: Induction of cell cycle arrest in human DOHH-2 cells assessed as accumulation of cells at S phase at 0.5 uM incubated for 24 hrs in presence of ibrutinib by PI staining based flow cytometry analysis (reference value: 55.11 %); assay type: functional
[16] = system: DOHH-2; test: Induction of cell cycle arrest in human DOHH-2 cells assessed as accumulation of cells at G2/M phase at 0.5 uM incubated for 24 hrs in presence of ibrutinib by PI staining based flow cytometry analysis (reference value: 21.42 %); assay type: functional
[17] = system: SU-DHL-6; test: Induction of apoptosis in human SU-DHL-6 cells assessed as viable cells at 1.5 uM incubated for 48 hrs by annexin V-FITC and PI staining based flow cytometry analysis (reference value: 87.0 %); assay type: functional; conditions: read-out: Activity
[18] = system: SU-DHL-6; test: Induction of apoptosis in human SU-DHL-6 cells assessed as early apoptotic cells at 1.5 uM incubated for 48 hrs by annexin V-FITC and PI staining based flow cytometry analysis (reference value: 8.81 %); assay type: functional
[19] = system: SU-DHL-6; test: Induction of apoptosis in human SU-DHL-6 cells assessed as late apoptotic cells at 1.5 uM incubated for 48 hrs by annexin V-FITC and PI staining based flow cytometry analysis (reference value: 3.88 %); assay type: functional
[20] = system: SU-DHL-6; test: Induction of apoptosis in human SU-DHL-6 cells assessed as viable cells at 1.5 uM incubated for 48 hrs in presence of ibrutinib by annexin V-FITC and PI staining based flow cytometry analysis (reference value: 87.0 %); assay type: functional; conditions: read-out: Activity
[21] = system: SU-DHL-6; test: Induction of apoptosis in human SU-DHL-6 cells assessed as early apoptotic cells at 1.5 uM incubated for 48 hrs in presence of ibrutinib by annexin V-FITC and PI staining based flow cytometry analysis (reference value: 8.81 %); assay type: functional
[22] = system: SU-DHL-6; test: Induction of apoptosis in human SU-DHL-6 cells assessed as late apoptotic cells at 1.5 uM incubated for 48 hrs in presence of ibrutinib by annexin V-FITC and PI staining based flow cytometry analysis (reference value: 3.88 %); assay type: functional
[23] = system: DOHH-2; test: Induction of apoptosis in human DOHH-2 cells assessed as late apoptotic cells at 2 uM incubated for 48 hrs by annexin V-FITC and PI staining based flow cytometry analysis (reference value: 2.20 %); assay type: functional
[24] = system: DOHH-2; test: Induction of apoptosis in human DOHH-2 cells assessed as viable cells at 2 uM incubated for 48 hrs in presence of ibrutinib by annexin V-FITC and PI staining based flow cytometry analysis (reference value: 95.4 %); assay type: functional; conditions: read-out: Activity
[25] = system: DOHH-2; test: Induction of apoptosis in human DOHH-2 cells assessed as early apoptotic cells at 2 uM incubated for 48 hrs in presence of ibrutinib by annexin V-FITC and PI staining based flow cytometry analysis (reference value: 2.09 %); assay type: functional
[26] = system: DOHH-2; test: Induction of apoptosis in human DOHH-2 cells assessed as necrotic cells at 2 uM incubated for 48 hrs in presence of ibrutinib by annexin V-FITC and PI staining based flow cytometry analysis (Rvb =0.29 %); assay type: functional
[27] = species on record: Homo sapiens; test: Selectivity ratio of IC50 for N-terminal His6-tagged recombinant full length human PI3Kalpha expressed in baculovirus infected Sf21 insect cells to IC50 for N-terminal His6-tagged recombinant full length human PI3Kgamma expressed in baculovirus infected Sf21 insect cells
[28] = Selectivity ratio of IC50 for human 786-O cells over expressing PI3Kbeta to IC50 for human SU-DHL-6 cells; assay type: functional
[29] = system: SU-DHL-6; test: Antitumor activity against human SU-DHL-6 cells xenografted in NOD/SCID mouse assessed as tumor growth inhibition at 10 mg/kg, po measured every 2 days in presence of ibrutinib; assay type: functional; conditions: SU-DHL-6, 48 h, time 2 day, read-out: TGI
[30] = system: SU-DHL-6; test: Antitumor activity against human SU-DHL-6 cells xenografted in NOD/SCID mouse assessed as reduction in tumor weight at 10 mg/kg, po measured every 2 days in presence of ibrutinib; assay type: functional, organism-based; conditions: time 2.0 day
[31] = Toxicity in human SU-DHL-6 cells xenografted in NOD/SCID mouse at 10 mg/kg, po measured every 2 days in presence of ibrutinib; assay type: organism-based; conditions: in vivo, 48 h, time 2 day
[32] = target: Phosphatidylinositol 4,5-bisphosphate 3-kinase catalytic subunit gamma isoform (Homo sapiens, UniProt P48736); test: Inhibition of N-terminal His6-tagged recombinant full length human PI3Kgamma expressed in baculovirus infected Sf21 insect cells incubated for 30 mins by HTRF assay
Chain of Phosphatidylinositol 4,5-bisphosphate 3-kinase catalytic subunit gamma isoform (P48736 whole entry, canonical isoform): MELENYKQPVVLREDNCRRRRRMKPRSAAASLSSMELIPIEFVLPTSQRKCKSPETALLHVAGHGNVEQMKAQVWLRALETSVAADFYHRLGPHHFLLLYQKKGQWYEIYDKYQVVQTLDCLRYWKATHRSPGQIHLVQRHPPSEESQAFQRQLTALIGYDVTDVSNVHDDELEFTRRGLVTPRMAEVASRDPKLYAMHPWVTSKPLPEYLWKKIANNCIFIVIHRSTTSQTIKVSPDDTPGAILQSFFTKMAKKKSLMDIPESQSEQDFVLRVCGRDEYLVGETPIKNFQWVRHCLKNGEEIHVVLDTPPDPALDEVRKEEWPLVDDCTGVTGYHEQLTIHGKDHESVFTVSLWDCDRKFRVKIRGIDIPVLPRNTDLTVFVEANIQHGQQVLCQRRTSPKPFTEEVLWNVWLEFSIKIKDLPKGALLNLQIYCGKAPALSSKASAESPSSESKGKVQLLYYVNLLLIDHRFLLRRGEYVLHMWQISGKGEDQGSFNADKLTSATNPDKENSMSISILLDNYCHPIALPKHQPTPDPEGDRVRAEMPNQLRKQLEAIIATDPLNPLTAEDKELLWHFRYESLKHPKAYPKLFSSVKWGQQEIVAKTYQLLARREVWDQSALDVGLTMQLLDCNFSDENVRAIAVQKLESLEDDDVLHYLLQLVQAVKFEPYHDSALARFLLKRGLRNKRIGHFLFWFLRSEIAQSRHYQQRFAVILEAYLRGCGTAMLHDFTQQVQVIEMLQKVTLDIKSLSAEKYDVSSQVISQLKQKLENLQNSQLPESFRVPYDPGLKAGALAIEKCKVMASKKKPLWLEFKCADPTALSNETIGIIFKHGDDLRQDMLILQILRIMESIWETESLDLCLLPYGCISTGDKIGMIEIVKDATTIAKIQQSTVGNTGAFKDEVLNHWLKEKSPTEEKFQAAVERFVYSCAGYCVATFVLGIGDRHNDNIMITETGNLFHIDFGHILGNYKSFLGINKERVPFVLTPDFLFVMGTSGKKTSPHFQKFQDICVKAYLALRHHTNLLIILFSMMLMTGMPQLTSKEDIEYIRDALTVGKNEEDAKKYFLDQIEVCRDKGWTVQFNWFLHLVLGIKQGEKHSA

[33] = target: Phosphatidylinositol 4,5-bisphosphate 3-kinase catalytic subunit beta isoform (Homo sapiens, UniProt P42338); test: Inhibition of N-terminal His6-tagged recombinant full length human PI3Kbeta expressed in baculovirus infected Sf21 insect cells incubated for 30 mins by HTRF assay
Chain of Phosphatidylinositol 4,5-bisphosphate 3-kinase catalytic subunit beta isoform (P42338 whole entry, canonical isoform): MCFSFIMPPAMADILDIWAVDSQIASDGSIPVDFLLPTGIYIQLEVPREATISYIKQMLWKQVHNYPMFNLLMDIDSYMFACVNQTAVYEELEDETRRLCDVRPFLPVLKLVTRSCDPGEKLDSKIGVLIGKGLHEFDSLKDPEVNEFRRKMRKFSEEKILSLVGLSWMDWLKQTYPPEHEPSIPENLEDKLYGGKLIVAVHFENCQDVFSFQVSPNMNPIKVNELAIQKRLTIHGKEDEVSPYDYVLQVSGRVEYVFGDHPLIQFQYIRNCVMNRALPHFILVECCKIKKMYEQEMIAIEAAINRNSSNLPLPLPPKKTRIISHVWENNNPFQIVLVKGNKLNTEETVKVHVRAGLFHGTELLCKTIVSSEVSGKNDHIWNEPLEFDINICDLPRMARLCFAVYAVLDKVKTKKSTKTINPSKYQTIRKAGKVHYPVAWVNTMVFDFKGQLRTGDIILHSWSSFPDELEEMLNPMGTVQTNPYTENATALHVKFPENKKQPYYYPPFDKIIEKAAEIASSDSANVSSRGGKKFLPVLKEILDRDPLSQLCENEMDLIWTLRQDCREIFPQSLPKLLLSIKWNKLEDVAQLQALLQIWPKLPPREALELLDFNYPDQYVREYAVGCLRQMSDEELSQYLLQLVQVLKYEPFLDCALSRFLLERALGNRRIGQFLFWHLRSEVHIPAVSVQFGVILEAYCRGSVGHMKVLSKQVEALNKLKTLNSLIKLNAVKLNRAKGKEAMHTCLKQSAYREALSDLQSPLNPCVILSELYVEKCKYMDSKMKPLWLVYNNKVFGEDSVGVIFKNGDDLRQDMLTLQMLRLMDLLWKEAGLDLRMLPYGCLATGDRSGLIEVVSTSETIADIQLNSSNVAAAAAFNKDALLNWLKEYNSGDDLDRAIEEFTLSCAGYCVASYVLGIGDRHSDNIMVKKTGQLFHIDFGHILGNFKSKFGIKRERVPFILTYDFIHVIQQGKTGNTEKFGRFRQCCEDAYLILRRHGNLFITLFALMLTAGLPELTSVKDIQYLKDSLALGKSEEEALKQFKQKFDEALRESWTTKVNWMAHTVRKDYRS

`C[C@H]1CC[C@@H](c2nc3cccc(Cl)c3c(=O)n2-c2cccnc2)N1c1nc(N)nc(N)c1C#N` showed an IC50 [1] of 200 nM, an IC50 [2] of 60 nM and an IC50 [3] of 30 nM. For the same molecule, the Cmax [4] was 3640 ng/mL, the AUC(0-t) at 24 h [5] was 2930 ng·h/mL and the half-life [6] was 9.46 h. The half-life [7] was 2.79 h, the CL/F [8] was 13.2 mL/min/kg and the clearance [9] was 12.5 mL/min/kg. For the same molecule, the Vd [10] was 2.86 L/kg, the Activity [11] was 79.73% and the Activity [12] was 10.01%. For the same molecule, the Activity [13] was 53.16%, the Activity [14] was 43.53% and the Activity [15] was 32.92%. For the same molecule, the Activity [16] was 20.03%, the viability at 1.5 µM [17] was 74.7% and the Activity [18] was 17.7%. The Activity [19] was 7.43%, the viability at 1.5 µM [20] was 47.1% and the Activity [21] was 34.5%. For the same molecule, the Activity [22] was 18.1%, the Activity [23] was 17.6% and the viability at 2 µM [24] was 23.5%. For the same molecule, the Activity [25] was 48.9%, the Activity [26] was 1.88% and the Ratio IC50 [27] was 794. For the same molecule, the Selectivity ratio [28] was 142, the inhibition in vivo at 10 mg/kg [29] was ≤ 81.4% and the Activity [30] was “Active”. The Activity [31] was “Non-Toxic”, the IC50 [32] was 16000 nM and the IC50 [33] was 84000 nM.
